# Results taken from PMC8591608, “DNDI-6148: A Novel Benzoxaborole Preclinical Candidate for the Treatment of Visceral Leishmaniasis” (Journal of Medicinal Chemistry, 2021).
# Where two headings read alike, the source gives them in different places.
# What was measured:
# L. infantum = L. infantum mouse model of VL; format: in vivo
# [1] = In vivo pharmacokinetics in rat; design: species or system male Sprague-Dawley rats; settings: for MRT inf: read-out: MRT0-inf; for MRT last: read-out: MRT0-last
# Description: DNDI-6148 was formulated in 2% ethanol, 1 mol equiv NaOH, dextrose (5% solution), and administrated to male Sprague-Dawley rats, either i.v. after filtration and pH adjustment (at 2 mg/kg), or p.o. as a homogenous suspension (at 10 mg/kg). The K2-EDTA anticoagulant was added to blood samples collected at predose, 0.083 (i.v. only), 0.25, 0.5, 1, 2 (p.o. only), 4, 8, and 24 h, and were processed to plasma and stabilized with phosphoric acid (1% final) before analysis by LC-MS/MS. PK parameters were calculated using WinNonlin software (version 6.21 and 6.3).
# [2] = Liver microsome stability, mouse; format: in vitro ADME; settings: Balb/c, mouse liver microsomes, pH 7.4
# Description: Tests were performed by WuXi AppTec, China. Test compounds (at 1 μM) or positive controls (testosterone, propafenone, and diclofenac) were incubated at 37 °C with liver microsomes from Balb/c mouse, golden (Syrian) hamster, Sprague-Dawley rat, Beagle dog, or human in the presence of a NADPH regenerating system and phosphate buffer (100 mM, pH 7.4) at 0.4 or 0.8 mg/mL microsomal protein. The samples were removed at time intervals from 0 to 60, 90, or 120 min and immediately mixed with cold methanol supplemented or not with acid (3% formic acid) and centrifuged prior to analysis by LC-MS/MS using tolbutamide or propranolol as internal standards.
# [3] = test system: Salmonella typhimurium strains (TA98 and TA100); experiment: Mini-Ames reverse mutation screen; format: cell-based; settings: TA98 and TA100, with and without metabolic activation, 1.5 to 1000 μg/well
# Description: Mini-Ames reverse mutation screens were conducted by WuXi AppTec, Co., China. Two Salmonella typhimurium strains (TA98 and TA100) were employed, both in the presence and absence of metabolic activation (induced rat liver S9). Test compounds were assessed at doses of 1.5, 4, 10, 25, 64, 160, 400, and 1000 μg per well, 2-aminoanthracene, 2-nitrofluorene, and sodium azide were used as positive controls, and the negative control was DMSO.
# [4] = test system: CPSF3-overexpressing L. donovani promastigotes; experiment: Drug sensitivity, CPSF3-overexpressing L. donovani promastigotes; format: cell-based; settings: Leishmania donovani
# Description: (§1) The clonal L. donovani cell line LdBOB (derived from MHOM/SD/62/1S-CL2D) was grown as promastigotes at 28 °C, as described previously. Bloodstream form T. brucei MiTat 1.2 clone 221a and its derived subline, 2T1, were cultured at 37 °C in the presence of 5% CO2 in HMI9-T medium, as described previously. T. brucei cell lines overexpressing CPSF3 and overexpressing a mutated version of CPSF3 (Asn232His) were generated as part of a previous study and cultured as described.[19]
# L. donovaniCPSF3 gene (LdBPK_343210.1) was custom synthesized by GeneArt and ligated into the pIR1SAT vector via BglII restriction sites. Using the Q5 mutagenesis kit (NEB) and the pIR1SAT-LdCPSF3^WT construct as a template, mutations encoding A655C and Asn219His change to CPSF3^WT were introduced. Mutations were introduced using the specific primers 5′-GAGTACACGGCATCCGC-3′ and 5′-[…]-3′ and as per manufacturers’ instructions. Wild-type and mutated pIR1SAT constructs were digested with SwaI and transfected into L. donovani promastigotes, as previously described. Resistant clones were selected with nourseothricin (100 μg/mL), and two clones per transfection were selected for further study.
# (§2) Drug sensitivity assays with wild-type and transgenic T. brucei and L. donovani cell lines were carried out as previously described.[31],[32]
# [5] = Human PK and dose prediction by allometric scaling
# CYP2C19 = CYP2C19 (Homo sapiens, UniProt P33261); experiment: CYP inhibition, CYP2C19; format: in vitro ADME; settings: human liver microsomes
# Description: The study was conducted by WuXi AppTec, Co., China, using the time-dependent (TDI) method. […] Following incubation with substrates (phenacetin for 1A2, diclofenac for 2C9, S-(+) mephenytoin for 2C19, dextromethorphan for 2D6, and midazolam or testosterone for 3A4), reactions were stopped by adding ice-cold acetonitrile, the samples were analyzed for the formation of metabolites by LC-MS/MS, and the percentage of inhibition was determined.
# [6] = test system: T. brucei trypanosomes maintaining a mutated version of CPSF3 (Asn232His); experiment: Drug sensitivity, T. brucei with mutated CPSF3; format: cell-based
# Description: as §1, §2
# [7] = test system: trypanosomes overexpressing the wild-type version of CPSF3; experiment: Drug sensitivity, T. brucei overexpressing CPSF3; format: cell-based
# Description: as §1, §2
# in vivo = settings: both, Sprague-Dawley, rat
# [8] = male, Sprague-Dawley, plasma, iv, rat, i.v. 2 mg/kg
# [9] = male, Sprague-Dawley, rat, plasma, IV 2.32 mg/kg, mean of R1-R3
# [10] = male, Sprague-Dawley, rat, plasma, PO 10.4 mg/kg, mean of R4-R6
# [11] = allometric scaling from rat and dog PK data
# Sequence of CYP2C19 (P33261 whole entry): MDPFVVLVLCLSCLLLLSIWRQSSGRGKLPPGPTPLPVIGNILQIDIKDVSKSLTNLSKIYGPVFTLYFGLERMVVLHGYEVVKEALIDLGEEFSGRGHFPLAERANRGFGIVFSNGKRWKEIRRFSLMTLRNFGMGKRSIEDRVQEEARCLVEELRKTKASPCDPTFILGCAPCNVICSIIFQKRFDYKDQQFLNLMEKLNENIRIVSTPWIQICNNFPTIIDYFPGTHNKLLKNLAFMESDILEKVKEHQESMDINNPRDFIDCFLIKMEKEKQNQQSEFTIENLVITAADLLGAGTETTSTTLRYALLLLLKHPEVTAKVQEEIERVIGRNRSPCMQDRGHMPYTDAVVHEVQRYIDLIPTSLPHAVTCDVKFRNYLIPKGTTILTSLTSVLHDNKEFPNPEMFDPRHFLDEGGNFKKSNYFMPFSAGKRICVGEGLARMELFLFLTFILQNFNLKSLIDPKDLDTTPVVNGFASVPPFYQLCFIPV
structure (smiles),measurement,setting,value
"Cc1c(C(=O)Nc2ccc3c(c2)B(O)OC3)nnn1-c1ccccn1 [Compound 23, N-(1-Hydroxy-1,3-dihydrobenzo[c][1,2]oxaborol-6-yl)-5-methyl-1-(pyridin-2-yl)-1H-1,2,3-triazole-4-carboxamide]","reduction in liver parasite burden following 5 days of p.o. dosing BID, L. infantum",L. infantum; 25 mg/kg BID,96.1%
same,"reduction in liver parasite burden following 5 days of p.o. dosing BID, L. infantum",L. infantum; 50 mg/kg BID,98.6%
same,Plasma concentration,"[1]; IV 2.32 mg/kg, plasma, 5 min, mean of R1-R3",4727
same,Plasma concentration,"[1]; IV 2.32 mg/kg, plasma, 0.25 h, mean of R1-R3",4093
same,Plasma concentration,"[1]; IV 2.32 mg/kg, plasma, 0.50 h, mean of R1-R3",3627
same,Plasma concentration,"[1]; IV 2.32 mg/kg, plasma, 1.00 h, mean of R1-R3",2767
same,Plasma concentration,"[1]; IV 2.32 mg/kg, plasma, 4.00 h, mean of R1-R3",537
same,Plasma concentration,"[1]; IV 2.32 mg/kg, plasma, 8.00 h, mean of R1-R3",84.9
same,Plasma concentration,"[1]; IV 2.32 mg/kg, plasma, 24.0 h, mean of R1-R3",5.67
same,AUC0-inf/AUC0-last,"[1]; IV 2.32 mg/kg, mean of R1-R3",100%
same,Tlast,"[1]; IV 2.32 mg/kg, mean of R1-R3",24.0 h
same,Plasma concentration,"[1]; PO 10.4 mg/kg, plasma, 0.25 h, mean of R4-R6",4287
same,Plasma concentration,"[1]; PO 10.4 mg/kg, plasma, 0.50 h, mean of R4-R6",3993
same,Plasma concentration,"[1]; PO 10.4 mg/kg, plasma, 1.00 h, mean of R4-R6",5153
same,Plasma concentration,"[1]; PO 10.4 mg/kg, plasma, 2.00 h, mean of R4-R6",6900
same,Plasma concentration,"[1]; PO 10.4 mg/kg, plasma, 4.00 h, mean of R4-R6",5773
same,Plasma concentration,"[1]; PO 10.4 mg/kg, plasma, 8.00 h, mean of R4-R6",1249
same,Plasma concentration,"[1]; PO 10.4 mg/kg, plasma, 24.0 h, mean of R4-R6",13.8
same,AUC0-inf/AUC0-last,"[1]; PO 10.4 mg/kg, mean of R4-R6",100%
same,Tlast,"[1]; PO 10.4 mg/kg, mean of R4-R6",24.0 h
same,Vd at 24 h,[1]; [8],0.6 L/kg
same,half-life at 24 h,[1]; [8],2.8 h
same,clearance,"[1]; male, Sprague-Dawley, plasma, iv, rat, i.v. 2 mg/kg, read-out: clearance",4.5 mL/min/kg
same,bioavailability,"[1]; male, Sprague-Dawley, plasma, po, rat, p.o. 10 mg/kg, read-out: F",94%
same,AUC(0-inf),[1]; [9],9160 ng·h/mL
same,AUC(0-t),[1]; [9],9140 ng·h/mL
same,C0,[1]; [9],5100 ng/mL
same,half-life,[1]; [9],2.75 h
same,clearance,"[1]; male, Sprague-Dawley, rat, plasma, IV 2.32 mg/kg, mean of R1-R3, read-out: Cl",4.5 mL/min/kg
same,MRT inf,[1]; [9],2.29 h
same,MRT last,[1]; [9],2.21 h
same,Vd,"[1]; male, Sprague-Dawley, rat, plasma, IV 2.32 mg/kg, mean of R1-R3, read-out: Vdss",0.603 L/kg
same,bioavailability,"[1]; male, Sprague-Dawley, rat, plasma, PO 10.4 mg/kg vs IV 2.32 mg/kg, mean, read-out: Bioavailability",94%
same,AUC(0-inf),[1]; [10],38600 ng·h/mL
same,AUC(0-t),[1]; [10],38500 ng·h/mL
same,Cmax,[1]; [10],7330 ng/mL
same,Tmax,[1]; [10],2.67 h
same,half-life,[1]; [10],2.34 h
same,MRT inf,[1]; [10],4.18 h
same,MRT last,[1]; [10],4.15 h
same,microsomal CLint at 1 μM,[2],< 11.9 µL/min/mg
same,Ames assay result,[3],negative
same,EC50,[4],508 ± 13 nM
same,predicted efficacious human dose,[5]; BID dosing in humans,3 to 20 mg/kg
same,predicted bioavailability in humans,[5]; [11],40–90%
same,predicted clearance in humans,[5]; [11],1 to 4 mL/min/kg
same,IC50,CYP2C19,> 50000 nM
same,EC50,[6]; Trypanosoma brucei,90 ± 3.4 nM
same,fold less sensitive compared to wild-type,"[6]; bloodstream trypanosomes, CPSF3 Asn232His",1.8 fold
same,EC50,[7]; Trypanosoma brucei,172 ± 3 nM
same,fold less sensitive compared to wild-type,[7]; trypanosomes overexpressing wild-type CPSF3,2.9 fold
"Cc1c(-c2ccccn2)coc1C(=O)Nc1ccc2c(c1)B(O)OC2 [Compound 28, N-(1-Hydroxy-1,3-dihydrobenzo[c][1,2]oxaborol-6-yl)-3-methyl-4-(pyridin-2-yl)furan-2-carboxamide]",NOAEL at 14 days,in vivo,< 12.5 mg/kg
